In patent US7709514B2, “Therapeutic molecules and methods-1” (Cortical Pty Ltd, priority 2002, dated 2010):
Read-outs that look alike come from different tables or passages of the source.

Columns and labels:
[1] = test system: murine peritoneal macrophage nitric oxide production; experiment: inhibition of peritoneal macrophage nitric oxide release (Greiss assay); assay type: cell-based, mice; conditions: Mus musculus, LPS 10 ng/ml and interferon-γ 10 units/ml, 24 hours, read-out: % Nitrite concentration inhibition from control
Description: C57BL6/J male mice were injected intraperitoneally with 2 ml of thioglycollate. Five (5) days later peritoneal macrophages were collected by lavaging the peritoneum of anaesthetized mice with 3 ml of cold Hanks buffered saline solution. Cells from several mice were pooled, washed and re-suspended in DMEM supplemented with 5% FCS. Cells were plated in 96 well plastic tissue culture plates at 1×10^5 cells/well. Cells were treated with compound or vehicle for 1 hour in a 5% CO2 incubator at 37° C. Cells were then treated with LPS (10 ng/ml) and recombinant human interferon-γ (10 units/ml) and incubated for 24 hours. After 24 hours, 50 μl of supernatant from each well was carefully removed and transferred to ELISA plates. The concentration of nitrite in culture supernatants was measured by the Greiss assay (27). The results were defined as the percentage inhibition of nitrite concentration in compound-treated cell culture supernatants compared to that of vehicle-treated cells.

[2] = test system: MIF-induced proliferation of S112 human dermal fibroblasts; experiment: dermal fibroblast proliferation induced by recombinant MIF; assay type: cell-based; conditions: compound 0.013 μM
Description: The activity of compound 5 was studied in a bioassay utilising MIF-induced proliferation of human dermal fibroblasts. S112 human dermal fibroblasts were propagated in RPMI/10% foetal calf serum (FCS). Prior to experimentation, cells were seeded at 10^5 cells/ml in RPMI/0.1% 13SA for 18 hours. At time point zero, culture medium was replaced with RPMI/10% FCS and treatments administered. Cells were treated with recombinant human macrophage migration inhibitory factor (MIF) 50 ng/ml and/or compound 5 at a 1-1000 molar ratio to the concentration of MIF. At a time point 30 hours later, cells were pulsed with 1 μCi/well of ^3H-thymidine. At a time point 48 hours after commencement of the experiment, cells were harvested using a semi-automated cell harvester. The radioactivity incorporated into DNA was determined by liquid scintillation counting, with results expressed as [^3H] thymidine incorporation.

[3] = test system: murine endotoxic shock model; experiment: murine endotoxic shock model (LPS), cytokines by ELISA; assay type: in vivo, mice
[4] = test system: cutaneous delayed-type hypersensitivity reactions; experiment: cutaneous delayed-type hypersensitivity (DTH) to mBSA; assay type: in vivo, mice; conditions: 15 mg/kg IP once per 24 hours; vs vehicle, p<0.05
Description: As noted above, cutaneous delayed-type hypersensitivity reactions (DTH) are an in vivo test of T cell activation. […] A compound which inhibits the cytokine of biological activity of MIF may be expected to inhibit the development of DTH reactions in vivo. DTH reactions were induced in mice developing antigen-induced arthritis (see below). C57BL6/J male mice, aged 7-10 weeks old, were immunized on day 0 with 200 μg methylated BSA (mBSA) emulsified in 200 μl of Freund's complete adjuvant (FCA) injected subcutaneously into the flank skin. Mice were treated with compound 5, administered by intraperitoneal injection, once per 24 hours at a dose of 15 mg/kg body weight. After seven days, mice received 100 μg mBSA and 100 μl FCA by intradermal injection at the base of the tail. After a further 14 days, arthritis was induced by intra-articular injection of 30 μg mBSA in 10 μl of sterile saline into the left knee, the right knee being injected with sterile saline alone. DTH reactions were induced as follows: these mice were challenged 24 h before the end of the experiment by intradermal injection of 50 μg mBSA in 20 μl saline into one hind footpad. […] Footpad swelling was quantified 24 h later using a micrometer. DTH was recorded as the difference in skin swelling between mBSA and saline-injected footpads, and expressed as change in footpad thickness (Δmm).

[5] = test system: murine peritoneal macrophage cytokine production; experiment: inhibition of peritoneal macrophage cytokine production (ELISA); assay type: cell-based, mice; conditions: Mus musculus
Description: C57BL6/J male mice were injected intraperitoneally with 2 ml of thioglycollate. Five (5) days later peritoneal macrophages were collected by lavaging the peritoneum of anaesthetized mice with 3 ml of cold Hanks buffered saline solution. Cells from several mice were pooled, washed and re-suspended in DMEM supplemented with 5% FCS. Cells were plated in 96 well plastic tissue culture plates at 1×10^5 cells/well. Cells were treated with compound or vehicle for 1 hour in a 5% CO2 incubator at 37° C. Cells were then treated with LPS (10-100 ng/ml) or recombinant human interferon-γ (10 units/ml) and incubated for 24 hours. After 24 hours, 50 μl of supernatant from each well was carefully removed and transferred to ELISA plates. The concentration of interleukin 1 (IL-1) or interleukin 6 (IL-6) was measured by ELISA. The concentration of compound at which LPS- or interferon-γ-induced cytokine release was suppressed by 50% compared to vehicle-only-treated cells (EC50) was calculated using Prism® software. Table 9 lists the EC50 for two compounds tested in this assay.

Compound: CCCCCOC(=O)c1ccc2[nH]c(=O)[nH]c2c1 [Compound 5]
- inhibition at 25 µM ([1]; compound 25 μM): 11.1%
- inhibition at 50 µM ([1]; compound 50 μM): 19.7%
- inhibition at 100 µM ([1]; compound 100 μM): 28.6%
- effect on proliferation of S112 cells treated with recombinant human MIF ([2]; FIG. 12): marked and statistically significant inhibitory effect
- inhibition at 0.013 µM ([2]; Homo sapiens, Fibroblast, read-out: % inhibition of MIF-induced proliferation, rhMIF 50 ng/ml, S112, P < 0.001): 98%
- Serum IL-6 at 6 h, LPS + cpd ([3]; IP injection 1 mg/kg at −1 h, LPS alone 215100): 101000
- Serum IL-6 at 6 h, LPS + cpd ([3]; IP injection 5 mg/kg at −1 h, LPS alone 215100): 108200
- Serum IL-6 at 6 h, LPS + cpd ([3]; IP injection 15 mg/kg at −24, −12, −1 h, LPS alone 261900): 162800
- cutaneous DTH reactions (change in footpad thickness) [4]: statistically significant reduction
- EC50 ([5]; [LPS] 10 ng/mL, read-out: EC50, IL-1 release): 0.075 µM
- EC50 ([5]; [LPS] 100 ng/mL, read-out: EC50, IL-6 release): 17.7 µM
